Results reported in ChEMBL document CHEMBL3739323, “Design, synthesis, and biological evaluation of novel quinazolinyl-diaryl urea derivatives as potential anticancer agents” (Eur J Med Chem, 2016).
The source made the active and inactive calls. No cut-off for these calls is given here.

Key:
A549 [1] = assay: Induction of apoptosis in human A549 cells assessed as upregulation of caspase-3 expression after 48 hrs by Western blot analysis; format: functional, cell-based
A549 [2] = assay: Disruption of mitochondrial membrane potential in human A549 cells assessed as ratio of green to red fluorescence intensity at 20 uM after 12 hrs by JC-1 staining based flow cytometric analysis; format: functional
A549 [3] = assay: Induction of apoptosis in human A549 cells assessed as early apoptotic cells at 10 uM after 6 hrs by Annexin-V-FITC/Propidium iodide staining based flow cytometric analysis (reference value: 3.83 +/- 0.49%); format: functional
A549 [4] = assay: Induction of apoptosis in human A549 cells assessed as increase in ROS production at 20 uM after 6 hrs by DCF staining based luminescence spectrometric analysis relative to control; format: functional
A549 [5] = assay: Cell cycle arrest in human A549 cells assessed as accumulation at G0/G1 phase at 10 uM by propidium iodide staining based flow cytometric analysis (reference value: 63.82 +/- 2.66%); format: functional
[6] = target: Serine/threonine-protein kinase B-raf (Homo sapiens) (UniProt P15056); assay: Inhibition of B-Raf in human A549 cells at 5 to 20 uM after 48 hrs by Western blot analysis; format: cell-based
A549 [7] = assay: Induction of cell cycle arrest in human A549 cells assessed as downregulation of p-Rb(Ser807/811) expression after 48 hrs by Western blot analysis; format: functional, cell-based
A549 [8] = assay: Induction of apoptosis in human A549 cells assessed as increase in ROS production at 20 uM after 12 hrs by DCF staining based luminescence spectrometric analysis relative to control; format: functional
A549 [9] = assay: Induction of apoptosis in human A549 cells assessed as necrotic cells at 10 uM after 48 hrs by Annexin-V/Propidium iodide dual staining based flow cytometric analysis (reference value: 2.57 +/- 0.39%); format: functional
A549 [10] = assay: Induction of apoptosis in human A549 cells assessed as late apoptotic cells at 20 uM after 48 hrs by Annexin-V/Propidium iodide dual staining based flow cytometric analysis (reference value: 1.44 +/- 0.43%); format: functional
A549 [11] = assay: Effect on total Rb level in human A549 cells after 48 hrs by Western blot analysis; format: ADME, cell-based; details: a549, 48 h
[12] = target: RAF proto-oncogene serine/threonine-protein kinase (Homo sapiens) (UniProt P04049); assay: Inhibition of c-Raf in human A549 cells assessed as downregulation of ERK1/2 expression after 48 hrs by Western blot analysis; format: cell-based
A549 [13] = assay: Induction of apoptosis in human A549 cells assessed as early apoptotic cells at 5 uM after 48 hrs by Annexin-V/Propidium iodide dual staining based flow cytometric analysis (reference value: 3.53 +/- 0.89%); format: functional
A549 [14] = assay: Induction of apoptosis in human A549 cells assessed as late apoptotic cells at 5 uM after 48 hrs by Annexin-V/Propidium iodide dual staining based flow cytometric analysis (reference value: 1.44 +/- 0.43%); format: functional

Chain of RAF proto-oncogene serine/threonine-protein kinase (Homo sapiens) (P04049 whole entry): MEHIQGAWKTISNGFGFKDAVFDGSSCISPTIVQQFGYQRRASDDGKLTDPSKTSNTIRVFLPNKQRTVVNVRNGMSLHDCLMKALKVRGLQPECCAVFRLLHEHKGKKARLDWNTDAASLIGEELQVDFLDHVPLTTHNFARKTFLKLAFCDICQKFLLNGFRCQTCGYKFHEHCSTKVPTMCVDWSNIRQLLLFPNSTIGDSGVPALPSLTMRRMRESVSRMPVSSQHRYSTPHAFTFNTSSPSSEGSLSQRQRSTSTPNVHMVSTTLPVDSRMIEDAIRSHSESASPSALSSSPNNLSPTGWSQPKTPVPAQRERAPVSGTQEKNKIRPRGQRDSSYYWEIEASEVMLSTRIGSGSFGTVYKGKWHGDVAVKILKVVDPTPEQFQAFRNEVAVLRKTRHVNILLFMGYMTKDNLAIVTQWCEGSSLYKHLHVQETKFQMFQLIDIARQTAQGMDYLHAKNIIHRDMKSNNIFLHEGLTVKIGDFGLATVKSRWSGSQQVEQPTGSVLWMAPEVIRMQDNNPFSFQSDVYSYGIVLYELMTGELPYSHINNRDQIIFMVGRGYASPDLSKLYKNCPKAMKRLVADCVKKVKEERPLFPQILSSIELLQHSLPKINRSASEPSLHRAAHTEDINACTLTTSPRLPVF
Chain of Serine/threonine-protein kinase B-raf (Homo sapiens) (P15056 whole entry): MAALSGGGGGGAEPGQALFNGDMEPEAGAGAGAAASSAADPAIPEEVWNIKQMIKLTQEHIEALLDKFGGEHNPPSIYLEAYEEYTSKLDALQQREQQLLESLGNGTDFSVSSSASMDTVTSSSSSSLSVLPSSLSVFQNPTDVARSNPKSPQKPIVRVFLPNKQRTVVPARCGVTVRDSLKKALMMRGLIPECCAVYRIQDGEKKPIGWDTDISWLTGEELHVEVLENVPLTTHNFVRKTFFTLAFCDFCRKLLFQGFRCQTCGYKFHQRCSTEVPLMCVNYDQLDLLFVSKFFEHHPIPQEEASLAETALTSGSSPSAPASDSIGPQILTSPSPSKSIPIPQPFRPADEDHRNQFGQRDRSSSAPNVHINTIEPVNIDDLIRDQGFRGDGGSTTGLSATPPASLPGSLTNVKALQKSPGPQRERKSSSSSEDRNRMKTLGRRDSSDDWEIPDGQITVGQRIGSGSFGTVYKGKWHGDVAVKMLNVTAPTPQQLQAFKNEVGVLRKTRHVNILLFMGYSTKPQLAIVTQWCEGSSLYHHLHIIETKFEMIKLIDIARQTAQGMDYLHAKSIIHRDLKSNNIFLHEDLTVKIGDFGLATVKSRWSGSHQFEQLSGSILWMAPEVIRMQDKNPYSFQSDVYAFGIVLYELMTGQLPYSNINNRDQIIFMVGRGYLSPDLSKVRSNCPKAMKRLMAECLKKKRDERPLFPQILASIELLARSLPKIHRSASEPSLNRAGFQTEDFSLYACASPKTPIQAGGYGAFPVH

Question: Which results are given for `COc1cc2ncnc(NCc3cccc(NC(=O)Nc4ccc(C(C)(C)C)cc4)c3)c2cc1OC`?
Answer: Activity (A549 [1]): Dose-dependent effect; Ratio (A549 [2]): 75; Activity (A549 [3]): 12.2%; Activity (A549 [4]): 54.3%; Activity (A549 [5]): 85.44%; inhibition [6]: inactive; Activity (A549 [7]): Dose-dependent effect; Activity (A549 [8]): 80.9%; Activity (A549 [9]): 22.9%; Activity (A549 [10]): 5.65%; Activity (A549 [11]): Non-toxic; inhibition [12]: Dose-dependent effect; Activity (A549 [13]): 2.54%; Activity (A549 [14]): 7.84%
